{"source": "patent US20240293350A1", "about": "“DEVELOPMENT OF AN INNOVATIVE INHALATION FORMULATION OF NAFAMOSTAT MESYLATE FOR THE MANAGEMENT OF COVID-19” (EGE UNIVERSITESI, priority 2020, published 2024)", "origin": "cited, not measured here", "key": {"SARS-COV-2 [1]": {"system": "SARS-COV-2", "conditions": "administered after infection with SARS-COV-2; compared with Remdesivir"}, "NL63 virus": {"system": "NL63 virus", "conditions": "after infection with NL63 virus, gut-on-a-chip model; compared with Remdesivir"}, "coronavirus": {"system": "coronavirus", "conditions": "primary human mucociliary airway epithelial cells"}, "SARS-COV-2 [2]": {"system": "SARS-COV-2", "conditions": "Simian Vero E6 cells infected with SARS-COV-2, cell culture"}}, "note": "Where a name gives a salt, the structure may show the parent alone.", "data": [{"smiles": "N=C(N)c1ccc2cc(OC(=O)c3ccc(N=C(N)N)cc3)ccc2c1", "note": "[NM, nafamostat mesylate]", "values": [{"measurement": "viral load", "setting": "SARS-COV-2 [1]", "result": "decreased the viral load more than Remdesivir"}, {"measurement": "effectiveness after infection", "setting": "NL63 virus", "result": "much more effective after infection with the NL63 virus than Remdesivir"}, {"measurement": "antiviral activity", "setting": "coronavirus", "result": "demonstrated antiviral activity"}, {"measurement": "prevention of infection of cells", "setting": "SARS-COV-2 [2]", "result": "prevent cells from being infected with the virus"}]}]}
